# Measured values reported in publication PMC10654507, “A cleavable chimeric peptide with targeting and killing domains enhances LPS neutralization and antibacterial properties against multi-drug resistant E. coli” (Communications Biology, 2023).
# Read-outs that look alike come from different tables or passages of the source. Residues, ends and D or L forms follow the SMILES beside them.
# Experiments:
# LPS [1] = assay: Mouse survival, preventive treatment before lethal LPS challenge; format: in vivo; design: key to survival of mice, single-animal event: 1 represents a mouse death; 0 represents no death; details: for survival of mice, single-animal event: Fig. 7a source data, LPS challenge
# Method: A sepsis mouse model established in our laboratory was used to evaluate the prevention effect of peptides. […] The survival rate of mice was recorded for 7 days. The mice injected with saline were used as negative control.
# MDR E. coli CVCC195 [2] = assay: Lung injury score (H&E histology), E. coli-challenged mice; format: in vivo, mouse; details: for lung injury score: 7 μmol/kg i.p. pre-treatment, three mice/group; for Pathological analysis of lung (lung injury score): Fig. 6b source data, peptide + E. coli, mean
# Method: Lung injury was analyzed histologically at 12 h or 24 h. a Histopathological images of lung sections after staining with hematoxylin and eosin (H&E). Images are presented at a magnification of 100×. b Pathological analysis of lung. Lung injury involves in inflammation (such as peribronchial, perivascular, intrabronchial, and pulmonary interstitial one), bronchial exudate, and alveolar septal thickening, respectively. The specific degree of lung injury of each mouse is assessed by Score 0 (asymptomatic), Score 1 (mild), Score 2 (moderate), and Score 3 (severe), respectively. c The number of counted infiltrated inflammatory cells within processed lung sections from a. Data represent the mean ± SD of three independent experiments. Different lower-case letters indicate a significant difference between the two groups (p < 0.05).
# (§1) Lung tissues were taken at 12 h and 24 h, respectively, washed with PBS, and fixed in 4% paraformaldehyde overnight. After dehydration in different concentrations of ethanol (including 75%, 85%, 90%, and 95%, respectively), the tissues were embedded in paraffin, sliced, and stained with hematoxylin. Observation was performed under a light microscope. The mice only injected with E. coli, LPS or PBS was regard as the negative or blank control.
# S. aureus CVCC546 = format: cell-based, Staphylococcus aureus; details: repeated three times
# Method: The minimum inhibitory concentration (MIC) and minimum bactericidal concentration (MBC) of peptides were determined by the microtiter broth dilution method according to Clinical and Laboratory Standards Institute (CLSI) guidelines. […] PBS was used as the negative control. […] The MBC value was calculated as the lowest concentration of peptides resulting in a 99.9% reduction of the original inoculum. All experiments were repeated three times.
# LPS [3] = format: in vivo, mouse; design: key: 1 represents a mouse death; 0 represents no death; details: Supplementary Fig. 3b source data, LPS challenge
# Method: (§2) Supplementary Figure 3. Therapeutic eﬀicacy of cleavable chimeric peptide R7 in the mice
# (§3) challenged with MDR E. coli or LPS After the intraperitoneal injection with MDR E. coli (a) or LPS
# (§4) (b) at a concentration of LD100, the mice were treated with 7 μmol/kg R7 at 0.5 h and 8 h, respectively.
# (§5) The mouse survival was recorded for 7 d. The mice injected with MDR E. coli/LPS or saline were used
# LPS [4] = assay: Serum cytokines (TNF-α, IL-6, IL-1β, IL-10; ELISA) in LPS-challenged mice; format: in vivo, mouse; details: LPS-challenged mice pre-treated with 7 μmol/kg, range over sampling times (12 h, 24 h)
# Method: (§6) After E. coli or LPS challenge, the mice were sacrificed at 12 h and 24 h, respectively, and the sera were collected to detect inflammatory cytokines (such as tumor necrosis factor-α (TNF-α), interleukin-6 (IL-6), interleukin-1β (IL-1β), and interleukin-10 (IL-10)) using the enzyme linked immunosorbent assay (ELISA) kits. To evaluate the specific activity of intestinal alkaline phosphatase (IAP), a 2 cm segment of duodenum was rapidly intercepted from the mice and homogenized; the IAP levels in the supernatant were detected by ELISA. In addition, the lungs were collected from the mice infected by E. coli after 12 and 24 h, respectively and were homogenized in sterile PBS for the bacterial counts assay.
# MDR E. coli CVCC195 [5] = assay: Infiltrated inflammatory cells in lung sections, E. coli-challenged mice; format: in vivo, mouse; details: Fig. 6c source data, peptide + E. coli, mean
# Method: Fig. 6 Effects of cleavable chimeric peptide R7 on lung injury in mice. […] Lung injury was analyzed histologically at 12 h or 24 h. a Histopathological images of lung sections after staining with hematoxylin and eosin (H&E). Images are presented at a magnification of 100×. b Pathological analysis of lung. Lung injury involves in inflammation (such as peribronchial, perivascular, intrabronchial, and pulmonary interstitial one), bronchial exudate, and alveolar septal thickening, respectively. The specific degree of lung injury of each mouse is assessed by Score 0 (asymptomatic), Score 1 (mild), Score 2 (moderate), and Score 3 (severe), respectively. c The number of counted infiltrated inflammatory cells within processed lung sections from a. Data represent the mean ± SD of three independent experiments. Different lower-case letters indicate a significant difference between the two groups (p < 0.05).
# as §1
# E. coli 0111: B4 LPS = assay: BC (BODIPY-TR-cadaverine) displacement assay, binding to LPS; design: species or system Escherichia coli; unit not given here; details: Fig. 4a source data, mean
# Method: The binding of peptides to LPS was determined according to the method described previously[34],[59]. In brief, E. coli 0111: B4 LPS (40 μg/mL) and BODIPY-TR-cadaverine (BC) (10 μM) were mixed in 50 mM Tris buffer (pH = 7.4) in equal proportions and added to a 96-well black plate (180 μL/well) in the dark. Different concentrations of chimeric peptide R7 and its parental (20 μL) were added into each well and detected by a fluorescence spectrophotometry at room temperature (excitation wavelength 580 nm, emission wavelength 620 nm). The change in relative fluorescence was recorded and the BC displacement rate was calculated. Polymycin B (PMB) was used as the positive control.
# MDR E. coli = format: in vivo, mouse; design: key to therapeutic efficacy, survival, single-animal event: 1 represents a mouse death; 0 represents no death; details: for therapeutic efficacy, survival, single-animal event: Supplementary Fig. 3a source data, MDR E. coli challenge, one cell per mouse
# Method: as §2, §3, §4, §5
# MDR E. coli CVCC195 [6] = assay: Intestinal alkaline phosphatase (IAP) activity in duodenum, E. coli-challenged mice; format: in vivo, mouse; details: for IAP levels in mice: Fig. 5g source data, peptide + E. coli, mean
# Method: as §6
# [7] = event at day 2, one cell per mouse
# [8] = event at day 7, one cell per entry
smiles,measurement,setting,value
CSCC[C@H](NC(=O)[C@H](CCCNC(=N)N)NC(=O)[C@H](Cc1c[nH]c2ccccc12)NC(=O)[C@H](C)NC(=O)[C@H](Cc1c[nH]c2ccccc12)NC(=O)[C@H](CCCNC(=N)N)NC(=O)[C@H](Cc1c[nH]c2ccccc12)NC(=O)[C@H](C)NC(=O)[C@H](CCCCN)NC(=O)[C@H](Cc1ccccc1)NC(=O)[C@H](CCCNC(=N)N)NC(=O)[C@H](CCCNC(=N)N)NC(=O)[C@H](CCCCN)NC(=O)[C@H](CCCNC(=N)N)NC(=O)[C@H](CCCCN)NC(=O)[C@H](Cc1ccccc1)NC(=O)[C@H](Cc1ccccc1)NC(=O)[C@H](CO)NC(=O)[C@H](C)NC(=O)[C@H](CCCNC(=N)N)NC(=O)[C@@H](NC(=O)[C@H](CCCCN)NC(=O)[C@H](Cc1c[nH]c2ccccc12)NC(=O)[C@H](CCCNC(=N)N)NC(=O)CNC(=O)[C@H](CCC(N)=O)NC(=O)[C@@H](NC(=O)[C@@H](N)CCCNC(=N)N)C(C)C)C(C)C)C(=O)N[C@@H](CCCCN)C(=O)N[C@@H](CCCCN)C(=O)N[C@@H](CC(C)C)C(=O)N[C@@H](C)C(=O)N[C@@H](C)C(=O)N1CCC[C@H]1C(=O)N[C@@H](CO)C(=O)O [R7] (H-RVQGRWKVRASFFKRKRRFKAWRWAWRMKKLAAPS-OH),mouse survival at 7 days,"LPS [1]; 7 μmol/kg i.p. at 0 h, LPS 13.5 mg/kg i.p. at 6 h, five mice/group",100%
same,"survival of mice, single-animal event",LPS [1]; [7],0
same,"survival of mice, single-animal event",LPS [1]; [8],0
same,lung injury score,MDR E. coli CVCC195 [2]; 12 h after E. coli infection,4.3 points
same,lung injury score,MDR E. coli CVCC195 [2]; 24 h after E. coli infection,2.0 points
same,Pathological analysis of lung (lung injury score),MDR E. coli CVCC195 [2]; 12 h,2.333
same,Pathological analysis of lung (lung injury score),MDR E. coli CVCC195 [2]; 24 h,2
same,MBC,S. aureus CVCC546; lowest concentration giving 99.9% reduction of the inoculum,2.26 µM
same,MIC,"S. aureus CVCC546; microtiter broth dilution, 10^5 CFU/mL, 37 °C, 16 ~ 18 h",2.26 µM
same,"therapeutic efficacy, survival, single-animal event",LPS [3]; [7],1
same,"therapeutic efficacy, survival, single-animal event","LPS [3]; event at day 3, one cell per mouse",1
same,"therapeutic efficacy, survival, single-animal event",LPS [3]; [8],0
same,serum IL-1β concentration,LPS [4],16.9 ~ 17.5 pg/mL
same,serum IL-6 concentration,LPS [4],92.5 ~ 99.3 pg/mL
same,serum IL-10 concentration,LPS [4],13.9 ~ 14.5 pg/mL
same,serum TNF-α concentration,LPS [4],43.1 ~ 46.1 pg/mL
same,number of counted infiltrated inflammatory cells,MDR E. coli CVCC195 [5]; 12 h,14.3787
same,number of counted infiltrated inflammatory cells,MDR E. coli CVCC195 [5]; 24 h,11.7743
same,binding affinity to LPS,E. coli 0111: B4 LPS; peptide concentration 0.05 μM,20.2273
same,binding affinity to LPS,E. coli 0111: B4 LPS; peptide concentration 0.1 μM,21.6184
same,binding affinity to LPS,E. coli 0111: B4 LPS; peptide concentration 0.5 μM,51.5852
same,binding affinity to LPS,E. coli 0111: B4 LPS; peptide concentration 1 μM,77.8834
same,binding affinity to LPS,E. coli 0111: B4 LPS; peptide concentration 5 μM,85.6571
same,binding affinity to LPS,E. coli 0111: B4 LPS; peptide concentration 10 μM,94.6127
same,binding affinity to LPS,E. coli 0111: B4 LPS; peptide concentration 50 μM,98.4665
same,binding affinity to LPS,E. coli 0111: B4 LPS; peptide concentration 100 μM,96.0469
same,"mouse survival, therapeutic treatment","MDR E. coli; MDR E. coli at LD100 i.p., then 7 μmol/kg R7 at 0.5 h and 8 h, recorded 7 d",≤ 20%
same,"therapeutic efficacy, survival, single-animal event",MDR E. coli; event at day 1,1
same,"therapeutic efficacy, survival, single-animal event",MDR E. coli; event at day 2,1
same,"therapeutic efficacy, survival, single-animal event",MDR E. coli; event at day 3,1
same,"therapeutic efficacy, survival, single-animal event",MDR E. coli; event at day 5,1
same,IAP levels in mice,MDR E. coli CVCC195 [6]; 12 h,514.632
same,IAP levels in mice,MDR E. coli CVCC195 [6]; 24 h,541.948
same,IAP activity,"MDR E. coli CVCC195 [6]; duodenum, 12 h after E. coli infection, mice pre-treated with 7 μmol/kg peptide, ELISA",514.6 U/g
